{"source": "PubChem BioAssay AID1259407", "about": "(Chemical Carcinogenesis Research Information System (CCRIS), 2018)", "tested_on": "CCRIS mutagenicity, Ames/micronucleus/aberration tests", "experiment": "CCRIS mutagenicity studies", "key": {"[1]": {"conditions": "Test System: AMES SALMONELLA TYPHIMURIUM, Strain/Indicator: TA98, Metabolic Activation: NONE, Method: STANDARD PLATE"}, "[2]": {"conditions": "Test System: AMES SALMONELLA TYPHIMURIUM, Strain/Indicator: TA100, Metabolic Activation: NONE, Method: STANDARD PLATE"}, "[3]": {"conditions": "Test System: MOUSE LYMPHOMA, Strain/Indicator: L5178Y (TK+/TK-), Metabolic Activation: NONE, Method: SUSPENSION/PLATE"}}, "note": "The source made the active and inactive calls. How the calls were made is not given here."}
{"smiles": "C[Si](Cl)(Cl)Cl", "values": [{"measurement": "mutagenic call", "setting": "[1]", "result": "inactive; negative"}, {"measurement": "mutagenic call", "setting": "Test System: AMES SALMONELLA TYPHIMURIUM, Strain/Indicator: TA98, Metabolic Activation: RAT LIVER S-9, AROCLOR 1254, Method: STANDARD PLATE", "result": "inactive; negative"}, {"measurement": "mutagenic call", "setting": "[2]", "result": "inactive; negative"}, {"measurement": "mutagenic call", "setting": "Test System: AMES SALMONELLA TYPHIMURIUM, Strain/Indicator: TA100, Metabolic Activation: RAT LIVER S-9, AROCLOR 1254, Method: STANDARD PLATE", "result": "inactive; negative"}, {"measurement": "mutagenic call", "setting": "Test System: AMES SALMONELLA TYPHIMURIUM, Strain/Indicator: TA1535, Metabolic Activation: NONE, Method: STANDARD PLATE", "result": "inactive; negative"}, {"measurement": "mutagenic call", "setting": "Test System: AMES SALMONELLA TYPHIMURIUM, Strain/Indicator: TA1535, Metabolic Activation: RAT LIVER S-9, AROCLOR 1254, Method: STANDARD PLATE", "result": "inactive; negative"}, {"measurement": "mutagenic call", "setting": "Test System: AMES SALMONELLA TYPHIMURIUM, Strain/Indicator: TA1537, Metabolic Activation: NONE, Method: STANDARD PLATE", "result": "inactive; negative"}, {"measurement": "mutagenic call", "setting": "Test System: AMES SALMONELLA TYPHIMURIUM, Strain/Indicator: TA1537, Metabolic Activation: RAT LIVER S-9, AROCLOR 1254, Method: STANDARD PLATE", "result": "inactive; negative"}, {"measurement": "mutagenic call", "setting": "Test System: AMES SALMONELLA TYPHIMURIUM, Strain/Indicator: TA1538, Metabolic Activation: NONE, Method: STANDARD PLATE", "result": "inactive; negative"}, {"measurement": "mutagenic call", "setting": "Test System: AMES SALMONELLA TYPHIMURIUM, Strain/Indicator: TA1538, Metabolic Activation: RAT LIVER S-9, AROCLOR 1254, Method: STANDARD PLATE", "result": "inactive; negative"}, {"measurement": "mutagenic call", "setting": "Test System: E. COLI, Strain/Indicator: P3078 POLA, Metabolic Activation: NONE, Method: SPOT TEST", "result": "inactive; negative"}, {"measurement": "mutagenic call", "setting": "Test System: E. COLI, Strain/Indicator: P3078 POLA, Metabolic Activation: RAT LIVER S-9, AROCLOR 1254, Method: SPOT TEST", "result": "inactive; negative"}, {"measurement": "mutagenic call", "setting": "Test System: E. COLI, Strain/Indicator: W3110, Metabolic Activation: NONE, Method: SPOT TEST", "result": "inactive; negative"}, {"measurement": "mutagenic call", "setting": "Test System: E. COLI, Strain/Indicator: W3110, Metabolic Activation: RAT LIVER S-9, AROCLOR 1254, Method: SPOT TEST", "result": "inactive; negative"}, {"measurement": "mutagenic call", "setting": "[3]", "result": "inactive; negative"}, {"measurement": "mutagenic call", "setting": "Test System: MOUSE LYMPHOMA, Strain/Indicator: L5178Y (TK+/TK-), Metabolic Activation: RAT, LIVER, S-9, Method: SUSPENSION/PLATE", "result": "inactive; negative"}]}
{"smiles": "Cc1ccc(S(=O)(=O)NN)cc1", "values": [{"measurement": "mutagenic call", "setting": "End Point: IN VITRO CHROMOSOMAL ABERRATIONS, Test System: CHL CELLS, Metabolic Activation: RAT, LIVER, S-9, SODIUM PHENOBARBITAL AND 5,6-BENZOFLAVONE", "result": "active; positive (structural changes)"}, {"measurement": "mutagenic call", "setting": "Test System: AMES SALMONELLA TYPHIMURIUM, Strain/Indicator: TA97, Metabolic Activation: NONE, Method: STANDARD PLATE", "result": "inactive; negative"}, {"measurement": "mutagenic call", "setting": "Test System: AMES SALMONELLA TYPHIMURIUM, Strain/Indicator: TA97, Metabolic Activation: RAT, LIVER, S-9, AROCLOR 1254, Method: STANDARD PLATE", "result": "inactive; negative"}, {"measurement": "mutagenic call", "setting": "Test System: AMES SALMONELLA TYPHIMURIUM, Strain/Indicator: TA98, Metabolic Activation: HAMSTER, LIVER, S-9, AROCLOR 1254, Method: STANDARD PLATE", "result": "inactive; negative"}, {"measurement": "mutagenic call", "setting": "Test System: AMES SALMONELLA TYPHIMURIUM, Strain/Indicator: TA98, Metabolic Activation: NONE, Method: PREINCUBATION", "result": "inactive; negative"}, {"measurement": "mutagenic call", "setting": "[1]", "result": "inactive; negative"}, {"measurement": "mutagenic call", "setting": "Test System: AMES SALMONELLA TYPHIMURIUM, Strain/Indicator: TA98, Metabolic Activation: RAT LIVER S-9, PHENOBARBITAL AND BETA-NAPHTHOFLAVONE, Method: PREINCUBATION", "result": "inactive; negative"}, {"measurement": "mutagenic call", "setting": "Test System: AMES SALMONELLA TYPHIMURIUM, Strain/Indicator: TA98, Metabolic Activation: RAT, LIVER, S-9, AROCLOR 1254, Method: STANDARD PLATE", "result": "inactive; negative"}, {"measurement": "mutagenic call", "setting": "Test System: AMES SALMONELLA TYPHIMURIUM, Strain/Indicator: TA100, Metabolic Activation: HAMSTER, LIVER, S-9, AROCLOR 1254, Method: STANDARD PLATE", "result": "active; positive"}, {"measurement": "mutagenic call", "setting": "Test System: AMES SALMONELLA TYPHIMURIUM, Strain/Indicator: TA100, Metabolic Activation: NONE, Method: PREINCUBATION", "result": "active; positive"}, {"measurement": "mutagenic call", "setting": "[2]", "result": "active; positive"}, {"measurement": "mutagenic call", "setting": "Test System: AMES SALMONELLA TYPHIMURIUM, Strain/Indicator: TA100, Metabolic Activation: RAT LIVER S-9, PHENOBARBITAL AND BETA-NAPHTHOFLAVONE, Method: PREINCUBATION", "result": "active; positive"}, {"measurement": "mutagenic call", "setting": "Test System: AMES SALMONELLA TYPHIMURIUM, Strain/Indicator: TA100, Metabolic Activation: RAT, LIVER, S-9, AROCLOR 1254, Method: STANDARD PLATE", "result": "active; positive"}, {"measurement": "mutagenic call", "setting": "Test System: AMES SALMONELLA TYPHIMURIUM, Strain/Indicator: TA102, Metabolic Activation: NONE, Method: STANDARD PLATE", "result": "inactive; negative"}, {"measurement": "mutagenic call", "setting": "Test System: AMES SALMONELLA TYPHIMURIUM, Strain/Indicator: TA102, Metabolic Activation: RAT, LIVER, S-9, AROCLOR 1254, Method: STANDARD PLATE", "result": "inactive; negative"}, {"measurement": "mutagenic call", "setting": "Test System: AMES SALMONELLA TYPHIMURIUM, Strain/Indicator: TA1535, Metabolic Activation: NONE, Method: PREINCUBATION", "result": "active; positive"}, {"measurement": "mutagenic call", "setting": "Test System: AMES SALMONELLA TYPHIMURIUM, Strain/Indicator: TA1535, Metabolic Activation: RAT LIVER S-9, PHENOBARBITAL AND BETA-NAPHTHOFLAVONE, Method: PREINCUBATION", "result": "active; positive"}, {"measurement": "mutagenic call", "setting": "Test System: AMES SALMONELLA TYPHIMURIUM, Strain/Indicator: TA1537, Metabolic Activation: NONE, Method: PREINCUBATION", "result": "inactive; negative"}, {"measurement": "mutagenic call", "setting": "Test System: AMES SALMONELLA TYPHIMURIUM, Strain/Indicator: TA1537, Metabolic Activation: RAT LIVER S-9, PHENOBARBITAL AND BETA-NAPHTHOFLAVONE, Method: PREINCUBATION", "result": "inactive; negative"}, {"measurement": "mutagenic call", "setting": "Test System: AMES SALMONELLA TYPHIMURIUM, Strain/Indicator: TA1538, Metabolic Activation: NONE, Method: PREINCUBATION", "result": "inactive; negative"}, {"measurement": "mutagenic call", "setting": "Test System: AMES SALMONELLA TYPHIMURIUM, Strain/Indicator: TA1538, Metabolic Activation: RAT LIVER S-9, PHENOBARBITAL AND BETA-NAPHTHOFLAVONE, Method: PREINCUBATION", "result": "inactive; negative"}, {"measurement": "mutagenic call", "setting": "Test System: E.COLI, Strain/Indicator: WP2UVRA, Metabolic Activation: NONE, Method: PREINCUBATION", "result": "active; positive"}, {"measurement": "mutagenic call", "setting": "Test System: E.COLI, Strain/Indicator: WP2UVRA, Metabolic Activation: RAT LIVER S-9, PHENOBARBITAL AND BETA-NAPHTHOFLAVONE, Method: PREINCUBATION", "result": "active; positive"}, {"measurement": "mutagenic call", "setting": "[3]", "result": "active; positive. reevaluation of results: positive"}, {"measurement": "mutagenic call", "setting": "Test System: MOUSE LYMPHOMA, Strain/Indicator: L5178Y (TK+/TK-), Metabolic Activation: RAT, LIVER, S-9, AROCLOR 1254, Method: SUSPENSION/PLATE", "result": "active; positive. reevaluation of results: equivocal"}]}
